Reference: patent US20090076130A1, “COMPOUNDS FOR THE INHIBITION OF HISTONE DEACETYLASE” (NATUREWISE BIOTECH & MEDICALS CORPORATION, priority 2007, published 2009)

Key:
rat C6 glioma cells [1] = test: Cell cycle / DNA content of C6 glioma cells by FACScan cytometry; type: cell-based; conditions: 0, 2.5, 5, 10 μg/mL, 72 hours, PI staining
Experimental: (§1) 1×10^6 of rat C6 glioma cells were treated with various concentrations of NBM-HD-1 (0 μg/mL, 2.5 μg/mL, 5 μg/mL, and 10 μg/mL) for 72 hours. The treated cells were trysinized and collected. The cells were resuspended in 200 μL PBS and then fixed by adding 800 μL of cold 100% ethanol. The resulting cells were fixed overnight at −20°. The cell pellets were collected by centrifugation, resuspended in 1 mL of hypotonic buffer (0.5% Triton X-100 in PBS and 1 μg/mL RNase A), and incubated at 37° for 30 minutes. Then, 1 mL of PI solution (50 μg/mL) was added to the resulting cell pellets. The mixture was allowed to stand at 4° for 30 min. The DNA amounts of the cells were analyzed by FACScan Cytometry (Becton Dickinson) (see FIG. 2).

[2] = tested on: human giloblastoma DBTRG-05MG cancer cells; test: Growth and morphology of human giloblastoma DBTRG-05MG cancer cells; type: cell-based; conditions: 72 hours
Experimental: The human giloblastoma DBTRG-05MG cancer cells were cultured in RPMI medium 1640 (Gibco) supplemented with penicillin G, streptomycin sulphate, 0.5 mM of L-glutamine and 10% fetal bovine serum (FBS; Gibco), 100 mh/L sodium pyruvate (Gibco), and 1% NEAA (Gibco) at 37° C., 5% CO2 and 95% relative humidity. For these experiments, the cells were seeded at a density of 3×10^5 per well of 6-well plates. After 24 hours, the cells were treated with different concentrations of NBM-HD-1 and 4 mM sodium butyrate. The cells were observed and counted after 72 hours. […] In 05MG cells (FIG. 7(A)), after incubation with 2.5 μg/mL (FIG. 7(A)-b), 5 μg/mL (FIG. 7(A)-c) and 10 μg/mL (FIG. 7(A)-d) of NBM-HD-1 for 72 hours, the density of the cells reduced dramatically in comparison with that of the control group (FIG. 7(A)-a). The 05MG cells in the experimental group also changed to become longer than those in the control group.

p21 = test: RT-PCR of p21 mRNA in MCF-7 cells; type: cell-based, human; conditions: different doses, 24 hours
Experimental: The cell cycle related to p21 mRNA expression was examined by RT-PCR. The total RNAs were isolated from the treated MCF-7 cells and used in the RT reaction. cDNA (1 μl) was used as a template to amplify p21 gene by PCR. GAPDH was used as an internal control. […] In this experiment, MCF-7 cells were treated with different doses of NBM-HD-1 for 24 hours.

rat C6 glioma cells [3] = test: Growth of rat C6 glioma cells (observation and cell counting); type: cell-based; conditions: 2.5, 5 and 10 μg/mL, 48 hours, cell density and cell counting vs control
Experimental: The cancer cell line, rat C6 glioma cells, was cultured in Dulbecco's modified Eagle's medium (DMEM; Gibco) supplemented with penicillin G, streptomycin sulphate, 0.5 mM of L-glutamine and 10% fetal bovine serum (FBS; Gibco) at 37° C., 5% CO2 and 95% relative humidity. For all experiments, the cells were seeded at a density of 3×10^5 per well in 6-well plates. After 24 hours, the cells were treated with different concentrations of the compound NBM-HD-1 (i.e., the compound of formula III depicted herein). After 48 hours, the cells were observed and counted. According to the results shown in FIG. 1, NBM-HD-1 can arrest the growth of rat C6 glioma cells. After the C6 glioma cells were incubated with 2.5 μg/mL (see FIG. 1(A)-b), 5 μg/mL (see FIG. 1(A)-c) and 10 μg/mL (see FIG. 1(A)-d) of NBM-HD-1 for 48 hours, the density of the cells reduced dramatically in comparison with that of control (see FIG. 1(A)-a).

cyclinD1, cyclinB1, p21 = test: RT-PCR of cell cycle regulator genes in C6 glioma cells; type: cell-based, rat; conditions: GAPDH internal control
Experimental: For the rat C6 glioma cells, the cell cycle related to mRNA expression was examined by RT-PCR. The total RNAs were isolated from the treated C6 cells by using the RNeasy Mini Kit (Qiagen) according to the manufacturer's instructions. The cDNAs were produced from 500 ng of total RNAs using ReverTra-Plus-™ (TOYOBO). The RT product (1 μl) was amplified by PCR with primers to analyze several genes of cell cycle by using GAPDH as an internal control. According to the results of FIG. 3, NBM-HD-1 can modulate the expression of some cell cycle regulators. […] On the contrary, the expression of p21 was increased.

GFAP = GFAP expression in C6 glioma cells (immuno-fluorescent staining, RT-PCR); type: cell-based, rat
Experimental: After the C6 glioma cells were incubated with 10 μg/mL NBM-HD-1 for 24 hours, they were fixed and analyzed by the traditional immuno-fluorescent staining method. Staining of glia was carried out by using glial-specific GFAP antibody (SIGMA) as the primary antibody and a fluorescence labeled rabbit immuno-globulin (SIGMA) as the secondary antibody to bind with the primary antibody. The cells which are GFAP-positive were excited by a specific light source to emit fluorescence. Also, the nuclei were stained with DAPI. […] In contrast with the control group, more GFAP proteins were detected in the photos of the cells being treated with 10 μg/mL of NBM-HD-1.
The GFAP mRNA expression was examined by RT-PCR.

MCF-7 cancer cells = test: Cell cycle / DNA of MCF-7 cells by FACScan cytometry; type: cell-based, human; conditions: 72 hours
Experimental: as §1
MCF-7 cancer cells (1×10^6) in a 100-mm dish were treated with various concentrations of NBM-HD-1 (0, 2.5, 5, and 10 μg/mL) or 4 mM sodium butyrate for 72 hours. The samples were prepared following the steps mentioned in [0063]. The DNA of the cells was then analyzed by FACScan cytometry (Becton Dickinson). […] The percentage of G0/G1 phase increased from 74.46 to 92.55 in a dose-dependent manner.

COc1cc2c(c(OC)c1CCC(C)(C)O)C(=O)C[C@@H](c1ccc(OC)c(OC)c1C/C=C(\C)CCCC(C)(C)O)O2 [NBM-HD-1]
cell cycle of C6 glioma cells (rat C6 glioma cells [1]): cell cycle arrest on the G0/G1 phase in a dose-dependent manner | morphology of 05MG cancer cells ([2]; 2.5, 5, 10 μg/mL): change the morphology of 05MG cancer cells | growth of 05MG cancer cells ([2]; NBM-HD-1 2.5, 5, 10 μg/mL or 4 mM sodium butyrate): can inhibit the growth of 05MG cells in a dose-dependent manner | p21 mRNA expression (p21): induced the expression of p21 in a dose-dependent manner | growth of C6 glioma cells (rat C6 glioma cells [3]): can inhibit the growth of C6 glioma cells in a dose-dependent manner | expression of cyclinD1 and cyclinB1 (cyclinD1, cyclinB1, p21): decrease the expression of cyclinD1 and cyclinB1 in a dose-dependent manner | expression of p21 (cyclinD1, cyclinB1, p21): increased | GFAP expression (immuno-fluorescent staining) (GFAP; 10 μg/mL, 24 hours): can induce the GFAP expression of C6 glioma cancer cells | GFAP mRNA expression (GFAP; RT-PCR): increased in a dose-dependent manner | cell cycle of MCF-7 cells (MCF-7 cancer cells; 0, 2.5, 5, 10 μg/mL): arrested on the G0/G1 phase in a dose-dependent manner | S and G2/M phases of the cells (MCF-7 cancer cells; MCF-7, 0, 2.5, 5, 10 μg/mL): significantly decreased both S and G2/M phases of the cells in a dose-dependent manner
